The values below come from ChEMBL document CHEMBL2407029 (Bioorg Med Chem Lett, 2013).

Each structure is given as a SMILES string. Square brackets hold non-standard residues; d marks the D form. Peptide text beside a SMILES is read from it. Phe(4-I) = N[C@@H](Cc1ccc(I)cc1)C(=O)O

Assay [1] in a line: (§1) Binding affinity to opioid receptor in CD-1 mouse brain after 90 mins. Particulars: read-out: Kd(app).
The target of assay [2] is Delta-type opioid receptor (Homo sapiens, UniProt P41143). Put plainly: Displacement of [125]IBNtxA from DOR-1 (unknown origin) transfected in CHO cells after 90 mins by competitive binding assay. Format: cell-based.
The target of assay [3] is Kappa-type opioid receptor (Homo sapiens, UniProt P41145). Put plainly: Displacement of [125]IBNtxA from KOR-1 (unknown origin) transfected in CHO cells after 90 mins by competitive binding assay. Format: cell-based.
Assay [4] is described as follows: Displacement of [131I]-[D-Ala2,4'-I-Phe8]alpha-Neoendorphin from opioid receptor in CD-1 mouse brain after 90 mins by competitive binding assay. It is filed as tissue-based.
The species entered for another assay is Mus musculus. The description is as §1. Particulars: tested as the 131I-labelled form.

For `CC(C)C[C@H](NC(=O)[C@H](Cc1ccccc1)NC(=O)CNC(=O)[C@@H](C)NC(=O)[C@@H](N)Cc1ccc(O)cc1)C(=O)N[C@@H](CCCNC(=N)N)C(=O)N[C@@H](CCCCN)C(=O)N[C@@H](Cc1ccc([131I])cc1)C(=O)N1CCC[C@H]1C(=O)N[C@@H](CCCCN)C(=O)O`, the Kd in assay [1] came to 11 nM. Consider `CC(C)C[C@H](NC(=O)[C@H](Cc1ccccc1)NC(=O)CNC(=O)CNC(=O)[C@@H](N)Cc1ccc(O)cc1)C(=O)N[C@@H](CCCNC(=N)N)C(=O)N[C@@H](CCCCN)C(=O)N[C@@H](Cc1ccc(O)cc1)C(=O)N1CCC[C@H]1C(=O)N[C@@H](CCCCN)C(=O)O` (H-YGGFLRKYPK-OH), for which the Ki stood at 1.7 nM in assay [2], 2.4 nM in assay [3] and 9.8 nM in assay [4]. Regarding `CC(C)C[C@H](NC(=O)[C@H](Cc1ccccc1)NC(=O)CNC(=O)[C@@H](C)NC(=O)[C@@H](N)Cc1ccc(O)cc1)C(=O)N[C@@H](CCCNC(=N)N)C(=O)N[C@@H](CCCCN)C(=O)N[C@@H](Cc1ccc(I)cc1)C(=O)N1CCC[C@H]1C(=O)N[C@@H](CCCCN)C(=O)O` (H-Y[dA]GFLRK[Phe(4-I)]PK-OH), the Bmax in the assay listed under Mus musculus came to 465 fmol/mg.

In the case of `C[C@@H](NC(=O)[C@@H](N)Cc1ccc(O)cc1)C(=O)NCC(=O)N(C)[C@@H](Cc1ccccc1)C(=O)NCCO` [DAMGO], affinity in assay [4] was put at a Ki of 1.4 nM. In other words, the single-digit nanomolar range.

Take `CC[C@H](C)[C@H](NC(=O)[C@H](CCCNC(=N)N)NC(=O)[C@H](CCCNC(=N)N)NC(=O)[C@H](CC(C)C)NC(=O)[C@H](Cc1ccccc1)NC(=O)CNC(=O)CNC(=O)[C@@H](N)Cc1ccc(O)cc1)C(=O)N[C@@H](CCCNC(=N)N)C(=O)N1CCC[C@H]1C(=O)N[C@@H](CCCCN)C(=O)N[C@@H](CC(C)C)C(=O)N[C@@H](CCCCN)C(=O)N[C@@H](Cc1c[nH]c2ccccc12)C(=O)N[C@@H](CC(=O)O)C(=O)N[C@@H](CC(N)=O)C(=O)N[C@@H](CCC(N)=O)C(=O)O` [DYNORPHIN A (1-17)]: in assay [4], the Ki stood at 5.5 nM. This Ki is about 3.9-fold higher than that of the compound before. Take `CC(C)C[C@H](NC(=O)[C@H](Cc1ccccc1)NC(=O)CNC(=O)CNC(=O)[C@@H](N)Cc1ccc(O)cc1)C(=O)N[C@@H](CCCNC(=N)N)C(=O)N[C@@H](CCCNC(=N)N)C(=O)N[C@@H](CCC(N)=O)C(=O)N[C@@H](Cc1ccccc1)C(=O)N[C@@H](CCCCN)C(=O)N[C@H](C(=O)N[C@H](C(=O)N[C@H](C(=O)O)[C@@H](C)O)C(C)C)C(C)C` [DYNORPHIN B]: in assay [4], the Ki is 6.7 nM. This Ki and that of the compound before are within 1.5-fold of each other.
